From patent US20180155757A1, “IDENTIFICATION OF BACTERIA THAT ARE RESISTANT TO CARBAPENEMS BY MEMBRANE IMPERVIOUSNESS” (BIOMÉRIEUX, priority 2015, published 2018)

Tests used:
Type in all cases: cell-based
[1] = system: Enterobacter aerogenes EA 27; assay: MIC of PMBN, microdilution in liquid medium
Experimental: (§1) Likewise, prior to carrying out the discriminating method according to the invention, the PMBN-sensitivity of each of the model strains used was evaluated by means of a method of microdilution in liquid medium.
(§2) To do this, each of the strains was cultured in Mueller-Hinton broth (MHII-Becton Dickinson®, United States). On inocula containing 2×10^5 CFU/ml, serial doubling dilutions were carried out for the PMBN in order to determine the minimum inhibitory concentrations. The PMBN-sensitivity was read after 18 hours of incubation at 37° C., by addition of 0.2 mg/ml of iodonitrotetrazolium chloride (Sigma-Aldrich®, United States).

[2] = system: K. pneumoniae 0901027 (KPC-3 producer); assay: MIC of PMBN
Experimental: as §1, §2

[3] = system: E. cloacae 0901026 (KPC-2 producer); assay: MIC of PMBN
Experimental: as §1, §2

E. cloacae 9402034 = assay: MIC of PMBN
Experimental: as §1, §2

[4] = system: K. pneumoniae 1108001 (KPC-2 producer); assay: MIC of PMBN
Experimental: as §1, §2

E. aerogenes 1204048 = assay: MIC of PMBN
Experimental: as §1, §2

E. aerogenes 9306071 = assay: MIC of PMBN
Experimental: as §1, §2

K. pneumoniae 1204034 = assay: MIC of PMBN
Experimental: as §1, §2

[5] = system: E. cloacae 1101172 (NDM producer); assay: MIC of PMBN
Experimental: as §1, §2

K. pneumoniae 1002015 = assay: MIC of PMBN
Experimental: as §1, §2

[6] = system: E. coli 1012292 (KPC-2 producer); assay: MIC of PMBN
Experimental: as §1, §2

[7] = system: E. coli 1008077 (VIM-1 producer); assay: MIC of PMBN
Experimental: as §1, §2

[8] = system: K. pneumoniae 0404024 (VIM-1 producer); assay: MIC of PMBN
Experimental: as §1, §2

[9] = system: E. cloacae 1008079 (IMP-1 producer); assay: MIC of PMBN
Experimental: as §1, §2

E. aerogenes 9203076 = assay: MIC of PMBN
Experimental: as §1, §2

E. coli 1204043 = assay: MIC of PMBN
Experimental: as §1, §2

[10] = system: E. cloacae 1008096 (VIM-1 producer); assay: MIC of PMBN
Experimental: as §1, §2

E. cloacae 9304026 = assay: MIC of PMBN
Experimental: as §1, §2

C. freundii 1204047 = assay: MIC of PMBN
Experimental: as §1, §2

[11] = system: E. coli 0506040 (VIM-1 producer); assay: MIC of PMBN
Experimental: as §1, §2

C. freundii 0403012 = assay: MIC of PMBN
Experimental: as §1, §2

[12] = system: S. marcescens 1008175 (IMP-1 producer); assay: MIC of PMBN
Experimental: as §1, §2

[13] = system: K. pneumoniae 1108007 (VIM-1 producer); assay: MIC of PMBN
Experimental: as §1, §2

[14] = system: K. pneumoniae 1104053 (OXA-48 producer); assay: MIC of PMBN
Experimental: as §1, §2

[15] = system: K. pneumoniae 1108002 (KPC-3 producer); assay: MIC of PMBN
Experimental: as §1, §2

[16] = system: K. pneumoniae 1012335 (OXA-48 producer); assay: MIC of PMBN
Experimental: as §1, §2

[17] = system: E. cloacae 1008073 (VIM-1 producer); assay: MIC of PMBN
Experimental: as §1, §2

polymyxin B nonapeptide [PMBN]
MICPMBN [1]: MICPMBN = 1024 μg/ml
MICPMBN [2]: MICPMBN >1024 μg/ml
MICPMBN [3]: MICPMBN = 1024 μg/ml
MICPMBN (E. cloacae 9402034): MICPMBN >1024 μg/ml
MICPMBN [4]: MICPMBN = 1024 μg/ml
MICPMBN (E. aerogenes 1204048): MICPMBN >1024 μg/ml
MICPMBN (E. aerogenes 9306071): MICPMBN = 1024 μg/ml
MICPMBN (K. pneumoniae 1204034): MICPMBN = 256 ng/ml
MICPMBN [5]: MICPMBN = 1024 μg/ml
MICPMBN (K. pneumoniae 1002015): MICPMBN = 1024 μg/ml
MICPMBN [6]: MICPMBN = 1024 μg/ml
MICPMBN [7]: MICPMBN = 1024 μg/ml
MICPMBN [8]: MICPMBN >1024 μg/ml
MICPMBN [9]: MICPMBN >1024 μg/ml
MICPMBN (E. aerogenes 9203076): MICPMBN = 1024 μg/ml
MICPMBN (E. coli 1204043): MICPMBN = 512 μg/ml
MICPMBN [10]: MICPMBN = 1024 μg/ml
MICPMBN (E. cloacae 9304026): MICPMBN >1024 μg/ml
MICPMBN (C. freundii 1204047): MICPMBN = 1024 μg/ml
MICPMBN [11]: MICPMBN = 128 μg/ml
MICPMBN (C. freundii 0403012): MICPMBN = 256 μg/ml
MICPMBN [12]: MICPMBN = 1024 μg/ml
MICPMBN [13]: MICPMBN = 1024 μg/ml
MICPMBN [14]: MICPMBN = 1024 μg/ml
MICPMBN [15]: MICPMBN >1024 μg/ml
MICPMBN [16]: MICPMBN = 1024 μg/ml
MICPMBN [17]: MICPMBN = 1024 μg/ml
